Read-outs that look alike come from different tables or passages of the source.
Tests used:
Assay type in all cases: cell-based, human
[1] = tested on: ZR-75-1 breast cancer cells; test: MTS cell viability assay, ZR-75-1; details: read-out: EC50 (effective concentration that resulted in 50% cell viability)
Method in brief: (§1)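 Increasing compound concentrations are applied to subconfluent (~50%) monolayers in MEM with 10% FBS and HEPES (pH 7.4) for 1 h, with 2-day washout, or for 48 h. MTS conversion over 4 h at 37 °C is read at 490 nm and normalised to control.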

[2] = tested on: DU145 prostate cancer cells; details: for EC50: read-out: EC50 (effective concentration that resulted in 50% cell viability)
Method in brief: (§2)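 SK-BR-3 cells grown in MEM, DU145 and PC-3 cells in RPMI-1640, each with 10% FBS and 25 mM HEPES pH 7.4, plated 2 days to ~50% confluence. Exposure to increasing Pt complex or cisplatin/carboplatin concentrations for 1 h (washed, then 2 days recovery) or 48 h continuous. MTS absorbance at 490 nm after 4 h; viability as percent of control.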

[3] = tested on: PC-3 prostate cancer cells; test: MTS cell viability assay, PC-3; details: for EC50: read-out: EC50 (effective concentration that resulted in 50% cell viability)
Method in brief: as §2

A549 lung cancer cells = test: MTS cell viability assay, A549; details: for EC50: read-out: EC50 (effective concentration that resulted in 50% cell viability)
Method in brief: as §1

[4] = tested on: MDA-MB-231 breast cancer cells; test: MTS cell viability assay, MDA-MB-231; details: read-out: EC50 (effective concentration that resulted in 50% cell viability)
Method in brief: as §1

[5] = tested on: SK-BR-3 breast cancer cells; test: MTS cell viability assay, SK-BR-3; details: for EC50: read-out: EC50 (effective concentration that resulted in 50% cell viability)
Method in brief: as §2

[6] = tested on: HCC38 breast cancer cells; test: MTS cell viability assay, HCC38; details: read-out: EC50 (effective concentration that resulted in 50% cell viability)
Method in brief: as §1

H520 lung cancer cells = test: MTS cell viability assay, H520; details: read-out: EC50 (effective concentration that resulted in 50% cell viability)
Method in brief: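 Viability by MTS colorimetry (A490, 4 h incubation) as % of solvent control, after 1 h pulse plus 2-day recovery or 48 h continuous drug exposure.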

[7] = tested on: MCF-7 breast cancer cells; test: MTS cell viability assay, MCF-7; details: for EC50: read-out: EC50 (effective concentration that resulted in 50% cell viability)
Method in brief: as §1

[8] = tested on: T-47D breast cancer cells; test: MTS cell viability assay, T-47D
Method in brief: as §1

[9] = ZR-75-1, 1 h treatment, Table 3
[10] = MDA-MB-231, 1 h treatment, Table 3
[11] = SK-BR-3, 1 h treatment, Table 3
[12] = 1 h treatment, Table 3, read-out: EC50 (effective concentration that resulted in 50% cell viability)
[13] = 48 h, Table 5, read-out: EC50 (effective concentration that resulted in 50% cell viability)

## [NH2][Pt]([NH2])([Cl])[Cl] [CDDP, Cisplatin, reference compound]
[1]; ZR-75-1, 1 h treatment, Table 2
  EC50: 260 ± 10 µM
[1]; [9]
  EC50: 260 ± 10 µM
[1]; ZR-75-1, 48 h, Table 5
  EC50: 30 ± 8 µM
[1]; ZR-75-1, 48 h treatment, Table 4
  EC50: 30 ± 8 µM
[2]; DU145, 1 hour treatment (FIG. 8A, top), up to 1 mM carboplatin, 100 μM Pt(IV)-1C, 50 μM Pt(IV)-2C
  effect on cell viability (in words): concentration dependent decrease in cell viability
[2]; DU145, 1 h treatment, Table 2
  EC50: 400 ± 100 µM
[2]; DU145, 1 h treatment, Table 3
  EC50: 400 ± 100 µM
[2]; DU145, 48 h, Table 5
  EC50: 64 ± 8 µM
[2]; DU145, 48 h treatment, Table 4
  EC50: 64 ± 8 µM
[2]; DU145, one and 48 hours treatment (FIG. 8H)
  anti-proliferative activity compared to cisplatin (in words): concentration dependent decreased in cell viability
[3]; PC-3, 1 h treatment, Table 2
  EC50: 200 ± 20 µM
[3]; PC-3, 1 h treatment, Table 3
  EC50: 200 ± 20 µM
[3]; PC-3, 48 h, Table 5
  EC50: 30 ± 1 µM
[3]; PC-3, 48 h treatment, Table 4
  EC50: 30 ± 1 µM
[3]; PC-3, one and 48 hours treatment (FIG. 8I)
  anti-proliferative activity compared to cisplatin (in words): concentration dependent decreased in cell viability
A549 lung cancer cells; A549, 1 h treatment, Table 2
  EC50: 900 ± 200 µM
A549 lung cancer cells; A549, 1 h treatment, Table 3
  EC50: 900 ± 200 µM
A549 lung cancer cells; A549, 48 h, Table 5
  EC50: 500 ± 100 µM
A549 lung cancer cells; A549, 48 h treatment, Table 4
  EC50: 500 ± 100 µM
[4]; MDA-MB-231, 1 h treatment, Table 2
  EC50: 50 ± 4 µM
[4]; [10]
  EC50: 50 ± 4 µM
[4]; MDA-MB-231, 48 h, Table 5
  EC50: 21 ± 3 µM
[4]; MDA-MB-231, 48 h treatment, Table 4
  EC50: 21 ± 3 µM
[5]; SK-BR-3, 1 h treatment, Table 2
  EC50: 420 ± 80 µM
[5]; [11]
  EC50: 420 ± 80 µM
[5]; SK-BR-3, 48 h, Table 5
  EC50: 23 ± 8 µM
[5]; SK-BR-3, 48 h treatment, Table 4
  EC50: 23 ± 6 µM
[5]; SK-BR-3, one and 48 hours treatment (FIG. 8G)
  anti-proliferative activity compared to cisplatin (in words): concentration dependent decreased in cell viability
[6]; HCC38, 1 h treatment, Table 2
  EC50: 300 ± 30 µM
[6]; HCC38, 1 h treatment, Table 3
  EC50: 300 ± 30 µM
[6]; HCC38, 48 h, Table 5
  EC50: 30 ± 8 µM
[6]; HCC38, 48 h treatment, Table 4
  EC50: 30 ± 8 µM
H520 lung cancer cells; H520, 1 h treatment, Table 2
  EC50: 200 ± 17 µM
H520 lung cancer cells; H520, 1 h treatment, Table 3
  EC50: 200 ± 17 µM
H520 lung cancer cells; H520, 48 h, Table 5
  EC50: 24 ± 2 µM
H520 lung cancer cells; H520, 48 h treatment, Table 4
  EC50: 24 ± 2 µM
[7]; MCF-7, 1 h treatment, Table 2
  EC50: 900 ± 60 µM
[7]; MCF-7, 1 h treatment, Table 3
  EC50: 900 ± 100 µM
[7]; MCF-7, 48 h, Table 5
  EC50: 34 ± 1 µM
[7]; MCF-7, 48 h treatment, Table 4
  EC50: 35 ± 1 µM
[8]; 1 h treatment, Table 2, read-out: EC50 (effective concentration that resulted in 50% cell viability)
  EC50: 900 ± 100 µM
[8]; [12]
  EC50: 900 ± 100 µM
[8]; [13]
  EC50: 35 ± 6 µM
[8]; 48 h treatment, Table 4, read-out: EC50 (effective concentration that resulted in 50% cell viability)
  EC50: 35 ± 6 µM

## CC(=O)[O][Pt]([Cl])([Cl])[O]C(C)=O.CCCCCOc1ccnc(-c2cc(OCCCCC)ccn2)c1 [Pt(IV)-5C, [Pt(IV)Cl2(OAc)2(4,4′-dipentoxy-2,2′-bipyridine)]]
[1]; [9]
  EC50: 1.6 ± 0.1 µM
[1]; ZR-75-1, 48 h, Table 5
  EC50: 0.55 ± 0.07 µM
[2]; DU145, 1 h treatment, Table 3
  EC50: 1 ± 1 µM
[2]; DU145, 48 h, Table 5
  EC50: 0.34 ± 0.02 µM
[3]; PC-3, 1 h treatment, Table 3
  EC50: 1.7 ± 0.2 µM
[3]; PC-3, 48 h, Table 5
  EC50: 0.5 ± 0.2 µM
A549 lung cancer cells; A549, 1 h treatment, Table 3
  EC50: 6.6 ± 0.3 µM
A549 lung cancer cells; A549, 48 h, Table 5
  EC50: 2.2 ± 0.1 µM
[4]; [10]
  EC50: 1.8 ± 0.1 µM
[4]; MDA-MB-231, 48 h, Table 5
  EC50: 0.26 ± 0.01 µM
[5]; [11]
  EC50: 1.3 ± 0.6 µM
[5]; SK-BR-3, 48 h, Table 5
  EC50: 0.3 ± 0.03 µM
[6]; HCC38, 1 h treatment, Table 3
  EC50: 3 ± 1 µM
[6]; HCC38, 48 h, Table 5
  EC50: 2.1 ± 0.3 µM
H520 lung cancer cells; H520, 1 h treatment, Table 3
  EC50: 3 ± 1 µM
H520 lung cancer cells; H520, 48 h, Table 5
  EC50: 1 ± 0.3 µM
[7]; MCF-7, 1 h treatment, Table 3
  EC50: 2.9 ± 0.13 µM
[7]; MCF-7, 48 h, Table 5
  EC50: 2 ± 0.1 µM
[8]; [12]
  EC50: 2.3 ± 0.3 µM
[8]; [13]
  EC50: 0.248 ± 0.001 µM

## [Pt(IV)Cl2(OAc)2(4,4′-dibutoxy-2,2′-bipyridine)] [Pt(IV)-4C]
[1]; [9]
  EC50: 2.9 ± 0.3 µM
[1]; ZR-75-1, 48 h, Table 5
  EC50: 0.7 ± 0.2 µM
[2]; DU145, 1 h treatment, Table 3
  EC50: 8 ± 7 µM
[2]; DU145, 48 h, Table 5
  EC50: 0.9 ± 0.2 µM
[3]; PC-3, 1 h treatment, Table 3
  EC50: 5 ± 3 µM
[3]; PC-3, 48 h, Table 5
  EC50: 1.1 ± 0.4 µM
A549 lung cancer cells; A549, 1 hour treatment, at the concentrations tested (FIG. 8E)
  effect on cell viability (in words): did not have any effect
A549 lung cancer cells; A549, 1 h treatment, Table 3
  EC50: > 25 µM
A549 lung cancer cells; A549, 48 h, Table 5
  EC50: 14 ± 1 µM
[4]; [10]
  EC50: 2.8 ± 0.1 µM
[4]; MDA-MB-231, 48 h, Table 5
  EC50: 1 ± 0.2 µM
[5]; [11]
  EC50: 4 ± 0.7 µM
[5]; SK-BR-3, 48 h, Table 5
  EC50: 0.44 ± 0.02 µM
[6]; HCC38, 1 h treatment, Table 3
  EC50: 17 ± 3 µM
[6]; HCC38, 48 h, Table 5
  EC50: 2.1 ± 0.2 µM
H520 lung cancer cells; H520, 1 h treatment, Table 3
  EC50: 13 ± 5 µM
H520 lung cancer cells; H520, 48 h, Table 5
  EC50: 2.2 ± 0.1 µM
[7]; MCF-7, 1 hour treatment, at the concentrations tested (FIG. 8F)
  effect on cell viability (in words): did not have any effect
[7]; MCF-7, 1 h treatment, Table 3
  EC50: > 25 µM
[7]; MCF-7, 48 h, Table 5
  EC50: 2.2 ± 0.1 µM
[8]; [12]
  EC50: 10 ± 1 µM
[8]; [13]
  EC50: 0.33 ± 0.07 µM

From US10316050B2, “PT (IV) complexes containing 4,4′-disubstituted-2,2′-bipyridyl and their use in cancer therapy” (THE BOARD OF REGENTS OF THE NEVADA SYSTEM OF HIGHER …, priority 2014, dated 2019)
